Consider 28 compounds from patent US7879911B2 (priority 2007, dated 2011).

This experiment deals with Lethal factor protease (Bacillus anthracis, UniProt P15917). Kind of experiment: biochemical. To be noted: LF (FRET) Ki^app.
Chain of Lethal factor protease (P15917 34-809 limits assumed): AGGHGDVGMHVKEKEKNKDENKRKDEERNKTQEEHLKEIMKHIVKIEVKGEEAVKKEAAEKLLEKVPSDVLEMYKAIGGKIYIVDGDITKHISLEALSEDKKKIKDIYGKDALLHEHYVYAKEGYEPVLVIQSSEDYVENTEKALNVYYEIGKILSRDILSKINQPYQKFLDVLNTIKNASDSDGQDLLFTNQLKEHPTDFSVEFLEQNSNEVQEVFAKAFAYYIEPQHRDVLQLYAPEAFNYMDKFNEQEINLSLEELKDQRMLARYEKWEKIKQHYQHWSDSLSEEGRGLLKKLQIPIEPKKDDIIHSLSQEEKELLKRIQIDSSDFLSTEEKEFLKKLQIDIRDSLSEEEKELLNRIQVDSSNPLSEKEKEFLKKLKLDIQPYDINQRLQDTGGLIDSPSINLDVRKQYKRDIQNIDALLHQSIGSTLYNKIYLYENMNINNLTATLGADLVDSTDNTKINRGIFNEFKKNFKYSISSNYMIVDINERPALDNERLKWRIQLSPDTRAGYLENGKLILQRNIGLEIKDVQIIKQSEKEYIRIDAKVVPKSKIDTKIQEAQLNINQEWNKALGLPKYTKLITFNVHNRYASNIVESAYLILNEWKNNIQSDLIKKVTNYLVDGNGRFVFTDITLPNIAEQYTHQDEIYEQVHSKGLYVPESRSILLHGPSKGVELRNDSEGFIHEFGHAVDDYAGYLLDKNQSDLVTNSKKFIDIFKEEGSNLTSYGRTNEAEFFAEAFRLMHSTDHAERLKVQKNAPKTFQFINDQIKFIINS
As for `CCCCC(C(=O)NO)[S+]([O-])c1ccc(F)c(C)c1` (single isomer, unassigned) [Compound 167351, syn-2-(4-Fluoro-3-methyl-benzenesulfinyl)-hexanoic acid hydroxyamide], the Ki came to 10300 nM.

Compound `CCCCC(C(=O)NO)[S+]([O-])c1ccc(F)c(C)c1` (single isomer, unassigned) [Compound 167352, anti-2-(4-Fluoro-3-methyl-benzenesulfinyl)-hexanoic acid hydroxyamide] registered a Ki of 67000 nM. The same measure for `CCCCC(Oc1ccc(F)c(C)c1)C(=O)NO` (stereo not shown) [Compound 167163, 2-(4-Fluoro-3-methyl-phenoxy)-hexanoic acid hydroxyamide]: 5500 nM; for `Cc1cc(OCC(=O)NO)ccc1F` [Compound 167182, 2-(4-Fluoro-3-methyl-phenoxy)-N-hydroxy-acetamide]: 29200 nM. `CCCCC(Sc1ccc(F)c(C)c1)C(=O)NO` (stereo not shown) [Compound 167303, 2-(4-Fluoro-3-methyl-phenylsulfanyl)-hexanoic acid hydroxyamide] came in with a Ki of 2500 nM. The same measure for `CCCCC(C(=O)NO)S(=O)(=O)c1ccc(F)c(C)c1` (stereo not shown) [Compound 167304, 2-(4-Fluoro-3-methyl-benzenesulfonyl)-hexanoic acid hydroxyamide]: 30000 nM.

Take `CCCCC(C(=O)NO)[S+]([O-])c1ccc(F)c(C)c1` (stereo not shown) [Compound 167316, 2-(4-Fluoro-3-methyl-benzenesulfinyl)-hexanoic acid hydroxyamide]: the Ki is 18000 nM. Under `CCC[C@@H](Oc1ccc(F)c(C)c1)C(=O)NO` [Compound 168090, (R)-2-(4-Fluoro-3-methyl-phenoxy)-pentanoic acid hydroxyamide] stands 3700 nM.

`Cc1cc(O[C@H](CCO)C(=O)NO)ccc1F` [Compound 168093, (R)-2-(4-fluoro-3-methylphenoxy)-N,4-dihydroxybutanamide] returned a Ki of 23100 nM. The same measure for `Cc1cc(CNCCCC[C@@H](Oc2ccc(F)c(C)c2)C(=O)NO)ccc1F` [Compound 168097, (R)-6-(4-Fluoro-3-methylbenzylamino)-2-(4-fluoro-3-methylphenoxy)-N-hydroxyhexanamide]: 210 nM; for `Cc1cc(CNCCCC[C@@H](Oc2cc(C)c(F)c(C)c2)C(=O)NO)ccc1F` [Compound 168100, (R)-2-(4-fluoro-3,5-dimethylphenoxy)-6-(4-fluoro-3-methylbenzylamino)-N-hydroxyhexanamide]: 580 nM; for `Cc1cc(COCCCC[C@@H](Oc2ccc(F)c(C)c2)C(=O)NO)ccc1F` [Compound 168113, (R)-6-(4-Fluoro-3-methylbenzyloxy)-2-(4-fluoro-3-methylphenoxy)-N-hydroxyhexanamide]: 540 nM.

On to `Cc1cc(OCC(=O)NO)cc(C)c1F` [Compound 168115, 2-(4-Fluoro-3,5-dimethyl-phenoxy)-N-hydroxy-acetamide], for which the Ki is 2520 nM. Under `O=C(COc1ccc(F)c(Cl)c1)NO` [Compound 168127, 2-(3-chloro-4-fluorophenoxy)-N-hydroxyacetamide] stands 31200 nM.

As to `O=C(COc1ccc(F)cc1)NO` [Compound 168128, 2-(4-fluorophenoxy)-N-hydroxyacetamide], the Ki was found to be 61100 nM. The compound `O=C(COc1ccc(Cl)cc1)NO` [Compound 168129, 2-(4-chlorophenoxy)-N-hydroxyacetamide] registered a Ki of 83900 nM. In turn, `O=C(COc1ccc(F)c(F)c1)NO` [Compound 168130, 2-(3,4-difluorophenoxy)-N-hydroxyacetamide] had a Ki of 26200 nM. Under `Cc1cc(COCCCC[C@@H](Oc2cc(C)c(F)c(C)c2)C(=O)NO)ccc1F` [Compound 168135, (R)-2-(4-fluoro-3,5-dimethylphenoxy)-6-(4-fluoro-3-methylbenzyloxy)-N-hydroxyhexanamide] stands 3030 nM; under `Cc1cc(CCCN(C)CC[C@@H](Oc2ccc(F)c(C)c2)C(=O)NO)ccc1F` [Compound 168142, (R)-2-(4-fluoro-3-methylphenoxy)-4-((3-(4-fluoro-3-methylphenyl)propyl)(methyl)amino)-N-hydroxybutanamide], 1120 nM. `Cc1cc(O[C@H](CCN2CCC[C@@H](CN3CCCCC3)C2)C(=O)NO)ccc1F` [Compound 168143, (R)-2-(4-fluoro-3-methylphenoxy)-N-hydroxy-4-((S)-3-(piperidin-1-ylmethyl)piperidin-1-yl)butanamide] yielded a Ki of 1670 nM.

Compound `O=C(NO)[C@@H](C/C=C\COCc1ccccc1)Oc1ccc(F)c(Cl)c1` [Compound 168160, (R,Z)-6-(benzyloxy)-2-(3-chloro-4-fluorophenoxy)-N-hydroxyhex-4-enamide] returned a Ki of 1250 nM. The same measure for `Cc1cc(O[C@H](CCCCO)C(=O)NO)ccc1F` [Compound 168176, (R)-2-(4-fluoro-3-methylphenoxy)-N,6-dihydroxyhexanamide]: 1780 nM; for `Cc1cc(O[C@H](CCCCNCc2cccs2)C(=O)NO)ccc1F` [Compound 168177, (R)-2-(4-fluoro-3-methylphenoxy)-N-hydroxy-6-(thiophen-2-ylmethylamino)hexanamide]: 210 nM; for `Cc1cc(O[C@H](CCCCNCc2cccc(-c3ccc(F)cc3)c2)C(=O)NO)ccc1F` [Compound 168178, (R)-2-(4-fluoro-3-methylphenoxy)-6-((4′-fluorobiphenyl-3-yl)methylamino)-N-hydroxyhexanamide]: 130 nM. The same measure for `Cc1cc(O[C@H](CCCCNCC2CC3CCC2C3)C(=O)NO)ccc1F` (stereo partly shown) [Compound 168183]: 170 nM; for `Cc1cc(O[C@H](CCCCNCc2ccco2)C(=O)NO)ccc1F` [Compound 168184]: 750 nM; for `Cc1cc(O[C@H](C/C=C/COCc2ccccc2)C(=O)NO)ccc1F` [Compound 168185]: 770 nM. Regarding `O=C(NO)[C@@H](CCCCOCc1ccccc1)Oc1ccc(F)c(Cl)c1` [Compound 168187], the Ki was 1070 nM.
